Drawing on US12692253B2, “Antimicrobial compounds and methods” (Curza Global, LLC, priority 2019, dated 2026), this text covers IC50 and MIC for 17 molecules.

In assay [1] the test system is E. coli S30 extract (bacterial protein synthesis). In words: E. coli S30 extract coupled transcription-translation luciferase assay (inhibition of bacterial protein synthesis). It is filed as biochemical. As to conditions: class by IC50 or % inhibition @ 1 μM, read-out: S30 IC50 (μM/% inhib.). The essentials:
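Coupled transcription-translation in E. coli S30 circular-DNA extract expressing luciferase from pBESTluc, with 8-point 2-fold compound dilutions; 1 hour at 37 °C, stopped at 4 °C. Luminescence read; % inhibition versus no-inhibitor wells, no-DNA wells as background.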

In assay [2] the target is Rabbit Reticulocyte Lysate (eukaryotic protein synthesis). In words: Rabbit reticulocyte lysate luciferase assay (inhibition of eukaryotic protein synthesis). The conditions noted are these: class by IC50 or % inhibition @ 1 μM, read-out: Rabbit reticulocyte IC50 (μM/% inhib.). It counts as biochemical. An outline of the steps:
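In vitro translation of luciferase control RNA in nuclease-treated rabbit reticulocyte lysate with amino acid mixture, compounds in 2-fold serial dilution, 90 minutes at 30° C. Luminescence read after luciferase reagent; % inhibition relative to water no-inhibitor controls, with no-RNA background wells.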

A further assay relates to A. baumannn (Ab). In words: Broth microdilution minimum inhibitory concentration (MIC), CLSI. The conditions noted are these: Acinetobacter baumannii, read-out: Ab + bicarb MIC. It counts as cell-based. An outline of the steps:
(§1)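 CLSI broth microdilution with modification: 8-point two-fold compound dilutions in CAMHB, CAMHB plus 6.25 or 25 mM sodium bicarbonate, or CAMHB plus 0–50% heat-inactivated human serum. Inoculum 5×10^4 CFU/well from log-phase cultures adjusted to 0.5 McFarland; triplicate wells.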
In general terms: In broth dilution the organism is exposed to a series of concentrations in liquid medium.

For another assay, the system named is E. coli (Ec). The description is as above. It counts as cell-based. The conditions noted are these: Escherichia coli, growth medium supplemented with sodium bicarbonate, read-out: E. coli + bicarb MIC. An outline of the steps: as §1
For a further assay, the system named is E. faecalis (Ef). The description is as above. It is filed as cell-based. As to conditions: Enterococcus faecalis, growth medium supplemented with sodium bicarbonate, read-out: Ef + bicarb MIC. The essentials:
as §1

In the next assay the test system is P. aeruginosa (Pa). The assay is described as above. It is filed as cell-based. As to conditions: Pseudomonas aeruginosa, growth medium supplemented with sodium bicarbonate, read-out: Pa MIC + bicarb. An outline of the steps:
as §1

The subject of a further assay is S. aureus (Sa). Described as above. It counts as cell-based. As to conditions: Staphylococcus aureus, growth medium supplemented with sodium bicarbonate, read-out: Sa + bicarb MIC. The essentials:
as §1

Regarding `Cc1cc(-n2ccc(NC(=O)N3CCN(C(=O)[C@@](C)(N)CO)CC3)nc2=O)ccc1CCN1C[C@@H]2[C@@H](CN)[C@@H]2C1` [Compound 129], the IC50 in assay [1] was under 0.5 µM; in assay [2] it was at least 1 µM. Also, the MIC with A. baumannn (Ab) was over 32 µg/mL; in the assay on E. coli (Ec), under 8 µg/mL; in the assay on E. faecalis (Ef), 8 to 32 µg/mL; with P. aeruginosa (Pa), 8 to 32 µg/mL; in the assay on S. aureus (Sa), under 8 µg/mL.

On to `Cc1cc(-n2ccc(NC(=O)N3CCN(C(=O)C(C)(C)N)CC3)nc2=O)ccc1CCN1CC2CC2(CN)C1` (centres unmarked) [Compound 130], for which the results for the IC50 in assay [1] and in assay [2] were under 0.5 µM and at least 1 µM, respectively. Besides, the MIC was 8 to 32 µg/mL in the assay on A. baumannn (Ab); under 8 µg/mL in the assay with E. coli (Ec); under 8 µg/mL in the assay on E. faecalis (Ef); 8 to 32 µg/mL with P. aeruginosa (Pa); under 8 µg/mL in the assay on S. aureus (Sa).

In the case of `CC(C)(N)C(=O)N1CCN(C(=O)Nc2ccn(-c3ccc(CCN4CC5CC5(CN)C4)c(C(F)(F)F)c3)c(=O)n2)CC1` (centres unmarked) [Compound 131], the IC50 was under 0.5 µM in assay [1] and at least 1 µM in assay [2]. Besides, the MIC is 8 to 32 µg/mL in the assay with A. baumannn (Ab); under 8 µg/mL in the assay on E. coli (Ec); under 8 µg/mL in the assay on E. faecalis (Ef); over 32 µg/mL in the assay with P. aeruginosa (Pa); under 8 µg/mL with S. aureus (Sa).

For `COc1cc(-n2ccc(NC(=O)N3CCN(C(=O)C(C)(C)N)CC3)nc2=O)ccc1CCN1C[C@@H]2[C@@H](CN)[C@@H]2C1` [Compound 132], the IC50 in assay [1] was under 0.5 µM; in assay [2] it was at least 1 µM. Further, the MIC in the assay with A. baumannn (Ab) is over 32 µg/mL; in the assay on E. coli (Ec) it was under 8 µg/mL; in the assay with E. faecalis (Ef), 8 to 32 µg/mL; in the assay on P. aeruginosa (Pa) it was 8 to 32 µg/mL; with S. aureus (Sa), 8 to 32 µg/mL.

On to `COc1cc(-n2ccc(NC(=O)N3CCN(C(=O)C(C)(C)N)CC3)nc2=O)ccc1CCN1CC2CC2(CN)C1` (centres unmarked) [Compound 133], for which the IC50 in assay [1] was under 0.5 µM; in assay [2], at least 1 µM. Also, the MIC with A. baumannn (Ab) was over 32 µg/mL; in the assay on E. coli (Ec) it was under 8 µg/mL; in the assay with E. faecalis (Ef) it was 8 to 32 µg/mL; with P. aeruginosa (Pa), over 32 µg/mL; in the assay on S. aureus (Sa), 8 to 32 µg/mL.

With `CC(N)[C@H]1[C@@H]2CN(CCc3ccc(-n4ccc(NC(=O)N5CCN(C(=O)C(C)(C)N)CC5)nc4=O)cc3)C[C@@H]21` (some centres unmarked) [Compound 134], the IC50 is under 0.5 µM in assay [1] and at least 1 µM in assay [2]. Besides, the MIC was 8 to 32 µg/mL in the assay on A. baumannn (Ab); under 8 µg/mL in the assay with E. coli (Ec); under 8 µg/mL in the assay with E. faecalis (Ef); 8 to 32 µg/mL with P. aeruginosa (Pa); under 8 µg/mL in the assay with S. aureus (Sa).

For `CCC(Cc1ccc(-n2ccc(NC(=O)N3CCN(C(=O)C(C)(C)N)CC3)nc2=O)cc1)N1C[C@@H]2[C@@H](CN)[C@@H]2C1` (some centres unmarked) [Compound 135], the IC50 in assay [1] is under 0.5 µM; in assay [2] it was at least 1 µM. Besides, the MIC in the assay on A. baumannn (Ab), in the assay with E. coli (Ec), in the assay on E. faecalis (Ef), with P. aeruginosa (Pa) and in the assay on S. aureus (Sa) was under 8 µg/mL throughout.

Consider `CC(Cc1ccc(-n2ccc(NC(=O)N3CCN(C(=O)C(C)(C)N)CC3)nc2=O)cc1)N1C[C@@H]2[C@H](C1)[C@H]2C(N)=O` (some centres unmarked) [Compound 136], for which the IC50 in assay [1] and in assay [2] was at least 1 µM throughout. Besides, the minimal inhibitory concentration (MIC) in the assay on A. baumannn (Ab), in the assay on E. coli (Ec), with E. faecalis (Ef), with P. aeruginosa (Pa) and in the assay on S. aureus (Sa) was over 32 µg/mL in each case.

For `CC(C)(N)C(=O)N1CCN(C(=O)Nc2ccn(-c3ccc(C(N)C(=O)N4C[C@@H]5[C@@H](CN)[C@@H]5C4)cc3)c(=O)n2)CC1` (some centres unmarked) [Compound 137], the IC50 in assay [1] is 0.5 to 1 µM; in assay [2] it was at least 1 µM. Further, the MIC with A. baumannn (Ab), in the assay with E. coli (Ec), in the assay with E. faecalis (Ef), in the assay with P. aeruginosa (Pa) and with S. aureus (Sa) was over 32 µg/mL in each case.

As for `CNC[C@@H]1[C@H]2CN(C(C)Cc3ccc(-n4ccc(NC(=O)N5CCN(C(=O)C(C)(C)N)CC5)nc4=O)cc3)C[C@@H]12` (some centres unmarked) [Compound 138], the IC50 in assay [1] is 0.5 to 1 µM; in assay [2], at least 1 µM. The MIC in the assay with A. baumannn (Ab) is over 32 µg/mL; in the assay on E. coli (Ec), under 8 µg/mL; with E. faecalis (Ef) it was 8 to 32 µg/mL; in the assay with P. aeruginosa (Pa), over 32 µg/mL; in the assay with S. aureus (Sa) it was under 8 µg/mL.

With `CC(Cc1ccc(-n2ccc(NC(=O)N3CCN(C(=O)C(C)(C)N)CC3)nc2=O)cc1F)N1C[C@@H]2[C@@H](CN)[C@@H]2C1` (some centres unmarked) [Compound 139], the IC50 in assay [1] is under 0.5 µM; in assay [2], at least 1 µM. Besides, the MIC with A. baumannn (Ab) was 8 to 32 µg/mL; with E. coli (Ec) it was under 8 µg/mL; in the assay with E. faecalis (Ef), under 8 µg/mL; in the assay on P. aeruginosa (Pa), 8 to 32 µg/mL; with S. aureus (Sa), under 8 µg/mL.

Turning to `C[C@H](Cc1ccc(-n2ccc(NC(=O)N3CCN(C(=O)C(C)(C)N)CC3)nc2=O)cc1)N1C[C@@H]2[C@@H](CN)[C@@H]2C1` [Compound 140], the IC50 in assay [1] is under 0.5 µM; in assay [2], at least 1 µM. In addition, the MIC in the assay with A. baumannn (Ab) is 8 to 32 µg/mL; in the assay on E. coli (Ec), under 8 µg/mL; in the assay on E. faecalis (Ef) it was under 8 µg/mL; in the assay on P. aeruginosa (Pa) it was 8 to 32 µg/mL; with S. aureus (Sa), under 8 µg/mL.

With `C[C@@H](Cc1ccc(-n2ccc(NC(=O)N3CCN(C(=O)C(C)(C)N)CC3)nc2=O)cc1)N1C[C@@H]2[C@@H](CN)[C@@H]2C1` [Compound 141], the figures for the IC50 in assay [1] and in assay [2] were under 0.5 µM and at least 1 µM, respectively. In addition, the MIC was 8 to 32 µg/mL with A. baumannn (Ab); under 8 µg/mL in the assay with E. coli (Ec); under 8 µg/mL with E. faecalis (Ef); under 8 µg/mL in the assay on P. aeruginosa (Pa); under 8 µg/mL in the assay on S. aureus (Sa).

With `CC(C)(N)C(=O)N1CCN(C(=O)Nc2ccn(-c3cccc(CCN4CC5CC5(CN)C4)c3)c(=O)n2)CC1` (centres unmarked) [Compound 142], the results for the IC50 in assay [1] and in assay [2] were 0.5 to 1 µM and at least 1 µM, respectively. Further, the MIC with A. baumannn (Ab) is over 32 µg/mL; in the assay on E. coli (Ec), under 8 µg/mL; with E. faecalis (Ef) it was 8 to 32 µg/mL; in the assay on P. aeruginosa (Pa) it was over 32 µg/mL; in the assay with S. aureus (Sa), 8 to 32 µg/mL.

On to `CC(C)(N)C(=O)N1CCN(C(=O)Nc2ccn(-c3cccc(CCN4C[C@@H]5[C@@H](CN)[C@@H]5C4)c3)c(=O)n2)CC1` [Compound 143], for which the IC50 in assay [1] is 0.5 to 1 µM; in assay [2], at least 1 µM. The MIC was over 32 µg/mL in the assay on A. baumannn (Ab); under 8 µg/mL in the assay with E. coli (Ec); 8 to 32 µg/mL in the assay with E. faecalis (Ef); over 32 µg/mL with P. aeruginosa (Pa); 8 to 32 µg/mL with S. aureus (Sa).

For `CC(C)(N)C(=O)N1CCN(C(=O)Nc2ccn(-c3cccc(CCN4C[C@H]5C[C@@]5(N)C4)c3)c(=O)n2)CC1` [Compound 144], the IC50 in assay [1] and in assay [2] was at least 1 µM throughout. The MIC in the assay on A. baumannn (Ab) was over 32 µg/mL; in the assay on E. coli (Ec) it was 8 to 32 µg/mL; in the assay with E. faecalis (Ef), over 32 µg/mL; with P. aeruginosa (Pa), over 32 µg/mL; in the assay on S. aureus (Sa) it was over 32 µg/mL.

As to `NC[C@@H]1[C@H]2CN(CCc3ccc(-n4ccc(NC(=O)N5CCC6(CCNC6)C5)nc4=O)cc3)C[C@@H]12` (some centres unmarked) [Compound 145], the IC50 in assay [1] and in assay [2] was at least 1 µM throughout. The MIC in the assay with A. baumannn (Ab) was over 32 µg/mL; in the assay on E. coli (Ec), under 8 µg/mL; in the assay with E. faecalis (Ef), over 32 µg/mL; in the assay with P. aeruginosa (Pa), over 32 µg/mL; with S. aureus (Sa) it was 8 to 32 µg/mL.

One may read the MIC as the smallest concentration in the dilution series that meets the test's criterion for growth inhibition.
